target: T1, Cannabinoid-1 receptor (CB1R) (Rattus norvegicus, UniProt P20272); experiment: Cannabinoid-1 receptor (CB1R) binding affinity assay ([3H]CP-55940, rat CB-1 receptor binding protocol); settings: brain tissue of SD rats, [3H]CP-55940, 30° C. 60 min; read-out: IC50
T1 construct: The tissue obtained from the brain of SD rats was homogenized; from tissue; host or cells: brain of SD rats (membrane pellet of the homogenate)
Experimental: The tissue obtained from the brain of SD rats was homogenized with a Dounce homogenate system in TME (50 mM Tris, 3 mM MgCl2 and 1 mM EDTA, pH 7.4) at 4° C., and the homogenate was centrifuged at 48,000 g for 30 min. at 4° C. The pellet was resuspended in 5 ml of TME and the suspension was divided into aliquots and stored at −70° C. until its use in the following assay.
The tissue concentrations were determined by Bradford protein analysis, and 148 μl of brain tissue of the required concentration was added to the plate. The plate was covered and placed in a 30° C. incubator for 60 min, and then transformed on GF/B filtermat pretreated in polyethylenimine (PEI) using a cell harvester. Each filter was washed five times and dried at 60° C. for 1 hr. Then, the degree of radioactivity retained by the filter was measured using Wallac Microbeta™ (PerkinElmer Life Sciences, Inc., Massachusetts, U.S.A.) and the activity of the compound for inhibiting CB1 receptor was determined therefrom.

T1 sequence (P20272 whole entry): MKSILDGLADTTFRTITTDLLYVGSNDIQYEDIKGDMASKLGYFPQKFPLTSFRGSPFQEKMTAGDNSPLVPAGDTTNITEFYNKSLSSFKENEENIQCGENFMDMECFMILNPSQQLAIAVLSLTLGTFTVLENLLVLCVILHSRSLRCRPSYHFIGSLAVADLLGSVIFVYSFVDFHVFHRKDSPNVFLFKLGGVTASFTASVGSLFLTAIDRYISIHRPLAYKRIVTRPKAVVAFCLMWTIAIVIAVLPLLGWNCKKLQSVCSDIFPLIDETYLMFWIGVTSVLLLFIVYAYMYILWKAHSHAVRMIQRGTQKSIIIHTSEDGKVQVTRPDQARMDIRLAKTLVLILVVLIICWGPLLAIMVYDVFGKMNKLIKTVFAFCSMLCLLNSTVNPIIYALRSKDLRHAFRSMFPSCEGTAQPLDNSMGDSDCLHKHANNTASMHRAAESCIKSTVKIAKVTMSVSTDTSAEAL

IC50 | Molecule
226 nM | CCC(C)c1nnc(-c2nn(-c3ccc(Cl)cc3Cl)c(-c3ccccc3)c2C)s1 (stereo not drawn) [Example 422, 2-sec-butyl-5-(1-(2,4-dichlorophenyl)-4-methyl-5-phenyl-1H-pyrazol-3-yl)-1,3,4-thiadiazole]
4.41 nM | CCc1c(-c2nnc(C3(c4ccc(Cl)cc4)CC3)s2)nn(-c2ccccc2Cl)c1-c1ccc(Br)cc1 [Example 464, 2-(5-(4-bromophenyl)-1-(2-chlorophenyl)-4-ethyl-1H-pyrazol-3-yl)-5-(1-(4-chlorophenyl)cyclopropyl)-1,3,4-thiadiazole]
712 nM | CCn1nc(-c2nn(-c3ccc(Cl)cc3Cl)c(-c3ccc(Cl)cc3)c2C)nc1C(C)C [Example 635, 3-(5-(4-chlorophenyl)-1-(2,4-dichlorophenyl)-4-methyl-1H-pyrazol-3-yl)-5-isopropyl-1-ethyl-1H-1,2,4-triazole]
10.1 nM | CC(C)(C)c1nnc(-c2nn(-c3ccc(Cl)cc3Cl)c(-c3ccc(Br)cc3)c2C=O)s1 [Example 527, 5-(4-bromophenyl)-3-(5-tert-butyl-1,3,4-thiadiazol-2-yl)-1-(2,4-dichlorophenyl)-1H-pyrazole-4-carbaldehyde]
19.7 nM | CCc1c(-c2nnc(C(C)(C)CC)s2)nn(-c2ccc(Cl)cc2Cl)c1-c1ccc(Br)cc1 [Example 451, 2-(5-(4-bromophenyl)-1-(2,4-dichlorophenyl)-4-ethyl-1H-pyrazol-3-yl)-5-tert-pentyl-1,3,4-thiadiazole]
8.8 nM | Cc1c(-c2nnc(C3CCCC3)s2)nn(-c2ccc(Cl)cc2Cl)c1-c1ccc(Cl)cc1 [Example 346, 2-(5-(4-chlorophenyl)-1-(2,4-dichlorophenyl)-4-methyl-1H-pyrazol-3-yl)-5-cyclopentyl-1,3,4-thiadiazole]
29.5 nM | CC(C)(c1ccc(Cl)cc1)c1nnc(-c2nn(-c3ccc(Cl)cc3Cl)c(-c3ccc(Cl)cc3)c2Br)s1 [Example 546, 2-(4-bromo-5-(4-chlorophenyl)-1-(2,4-dichlorophenyl)-1H-pyrazol-3-yl)-5-(2-(4-chlorophenyl)propan-2-yl)-1,3,4-thiadiazole]
4.08 nM | Cc1c(-c2nnc(C3CCC3)s2)nn(-c2ccc(Cl)cc2Cl)c1-c1ccc(Cl)cc1 [Example 345, 2-(5-(4-chlorophenyl)-1-(2,4-dichlorophenyl)-4-methyl-1H-pyrazol-3-yl)-5-cyclobutyl-1,3,4-thiadiazole]
6.56 nM | CCc1c(-c2nnc(C3(c4ccccc4)CC3)s2)nn(-c2ccc(Cl)cc2Cl)c1-c1ccc(Cl)cc1 [Example 479, 2-(5-(4-chlorophenyl)-1-(2,4-dichlorophenyl)-4-ethyl-1H-pyrazol-3-yl)-5-(1-phenylcyclopropyl)-1,3,4-thiadiazole]
2.18 nM | Clc1ccc(-c2c(Cn3cncn3)c(-c3nnc(C4CCC4)s3)nn2-c2ccc(Cl)cc2Cl)cc1 [Example 504, 2-(4-((1H-1,2,4-triazol-1-yl)methyl)-5-(4-chlorophenyl)-1-(2,4-dichlorophenyl)-1H-pyrazol-3-yl)-5-cyclobutyl-1,3,4-thiadiazole]
8.67 nM | CCC(C)(C)c1nnc(-c2nn(-c3ccccc3Cl)c(-c3ccc(Br)cc3)c2C)s1 [Example 429, 2-(5-(4-bromophenyl)-1-(2-chlorophenyl)-4-methyl-1H-pyrazol-3-yl)-5-tert-pentyl-1,3,4-thiadiazole]
33.9 nM | Cc1c(-c2nnc(C3(C(F)(F)F)CCC3)s2)nn(-c2ccc(Cl)cc2Cl)c1-c1ccc(Cl)cc1 [Example 465, 2-(5-(4-chlorophenyl)-1-(2,4-dichlorophenyl)-4-methyl-1H-pyrazol-3-yl)-5-(1-(trifluoromethyl)cyclobutyl)-1,3,4-thiadiazole]
9.36 nM | CC(=O)C1(c2nnc(-c3nn(-c4ccc(Cl)cc4Cl)c(-c4ccc(Cl)cc4)c3C)o2)CC1 [Example 286, 1-(1-(5-(5-(4-chlorophenyl)-1-(2,4-dichlorophenyl)-4-methyl-1H-pyrazol-3-yl)-1,3,4-oxadiazol-2-yl)cyclopropyl)ethanone]
21.3 nM | CCC(C)c1nnc(-c2nn(-c3ccc(Cl)cc3Cl)c(-c3ccc(Cl)cc3)c2Br)o1 (stereo not drawn) [Example 339, 2-(4-bromo-5-(4-chlorophenyl)-1-(2,4-dichlorophenyl)-1H-pyrazol-3-yl)-5-sec-butyl-1,3,4-oxadiazole]
14.1 nM | CC(F)c1c(-c2nnc(C(C)(C)C)o2)nn(-c2ccc(Cl)cc2Cl)c1-c1ccc(Cl)cc1 (stereo not drawn) [Example 210, 2-tert-butyl-5-(5-(4-chlorophenyl)-1-(2,4-dichlorophenyl)-4-(1-fluoroethyl)-1H-pyrazol-3-yl)-1,3,4-oxadiazole]
15.7 nM | CCC(C)c1nnc(-c2nn(-c3ccccc3Cl)c(-c3ccc(Br)cc3)c2C)s1 (stereo not drawn) [Example 428, 2-(5-(4-bromophenyl)-1-(2-chlorophenyl)-4-methyl-1H-pyrazol-3-yl)-5-sec-butyl-1,3,4-thiadiazole]
42.3 nM | Cc1c(-c2nnnn2C2CCC2)nn(-c2ccc(Cl)cc2Cl)c1-c1ccc(Cl)cc1 [Example 600, 5-(5-(4-Chlorophenyl)-1-(2,4-dichlorophenyl)-4-methyl-1H-pyrazol-3-yl)-1-cyclobutyl-1H-tetrazole]
492 nM | Cc1c(-c2nnc(C(C)(C)COCc3ccccc3)o2)nn(-c2ccc(Cl)cc2Cl)c1-c1ccc(Cl)cc1 [Example 254, 2-(1-(Benzyloxy)-2-methylpropan-2-yl)-5-(5-(4-chlorophenyl)-1-(2,4-dichlorophenyl)-4-methyl-1H-pyrazol-3-yl)-1,3,4-oxadiazole]
15 nM | CCCc1c(-c2nnc(C3(C(F)(F)F)CC3)o2)nn(-c2ccc(Cl)cc2Cl)c1-c1ccc(Cl)cc1 [Example 191, 2-(5-(4-chlorophenyl)-1-(2,4-dichlorophenyl)-4-propyl-1H-pyrazol-3-yl)-5-(1-(trifluoromethyl)cyclopropyl)-1,3,4-oxadiazole]
2.49 nM | Clc1ccc(-c2c(Cn3cncn3)c(-c3nnc(C4(c5ccc(Cl)cc5)CC4)s3)nn2-c2ccc(Cl)cc2Cl)cc1 [Example 506, 2-(4-((1H-1,2,4-triazol-1-yl)methyl)-5-(4-chlorophenyl)-1-(2,4-dichlorophenyl)-1H-pyrazol-3-yl)-5-(1-(4-chlorophenyl)cyclopropyl)-1,3,4-thiadiazole]
100 nM | Cc1c(-c2nnn(Cc3cccnc3)n2)nn(-c2ccc(Cl)cc2Cl)c1-c1ccc(Cl)cc1 [Example 586, 3-((5-(5-(4-Chlorophenyl)-1-(2,4-dichlorophenyl)-4-methyl-1H-pyrazol-3-yl)-2H-tetrazol-2-yl)methyl)pyridine]
287 nM | CC(C)(C)c1nnc(-c2nn(-c3ccc(Cl)cc3Cl)c(-c3ccc(Cl)cc3)c2CN2C(=O)CCC2=O)o1 [Example 305, 1-((3-(5-tert-butyl-1,3,4-oxadiazol-2-yl)-5-(4-chlorophenyl)-1-(2,4-dichlorophenyl)-1H-pyrazol-4-yl)methyl)pyrrolidine-2,5-dione]
5.77 nM | CC(O)c1c(-c2nnc(C3(c4ccc(Cl)cc4)CC3)o2)nn(-c2ccc(Cl)cc2Cl)c1-c1ccc(Cl)cc1 (stereo not drawn) [Example 209, 1-(5-(4-chlorophenyl)-3-(5-(1-(4-chlorophenyl)cyclopropyl)-1,3,4-oxadiazol-2-yl)-1-(2,4-dichlorophenyl)-1H-pyrazol-4-yl)ethanol]
84.1 nM | Cc1c(-c2cc(C(C)(C)C)on2)nn(-c2ccc(Cl)cc2Cl)c1-c1ccc(Cl)cc1 [Example 650, 5-tert-butyl-3-(5-(4-chlorophenyl)-1-(2,4-dichlorophenyl)-4-methyl-1H-pyrazol-3-yl)isoxazole]
2.34 nM | Clc1ccc(-c2c(Cn3cncn3)c(-c3nnc(C4(c5ccc(Cl)cc5)CCC4)s3)nn2-c2ccc(Cl)cc2Cl)cc1 [Example 513, 2-(4-((1H-1,2,4-triazol-1-yl)methyl)-5-(4-chlorophenyl)-1-(2,4-dichlorophenyl)-1H-pyrazol-3-yl)-5-(1-(4-chlorophenyl)cyclobutyl)-1,3,4-thiadiazole]
11.7 nM | Cc1c(-c2nnc(C3(Cc4ccc(Cl)cc4)CC3)o2)nn(-c2ccc(Cl)cc2Cl)c1-c1ccc(Cl)cc1 [Example 280, 2-(1-(4-chlorobenzyl)cyclopropyl)-5-(5-(4-chlorophenyl)-1-(2,4-dichlorophenyl)-4-methyl-1H-pyrazol-3-yl)-1,3,4-oxadiazole]
98.1 nM | CC(C)(C)c1nnc(-c2nn(-c3ccc(Cl)cc3Cl)c(-c3ccc(Cl)cc3)c2Cl)s1 [Example 540, 2-tert-butyl-5-(4-chloro-5-(4-chlorophenyl)-1-(2,4-dichlorophenyl)-1H-pyrazol-3-yl)-1,3,4-thiadiazole]
36.1 nM | Cc1c(-c2nnc(C3CCCCCC3)s2)nn(-c2ccc(Cl)cc2Cl)c1-c1ccc(Cl)cc1 [Example 362, 2-(5-(4-Chlorophenyl)-1-(2,4-dichlorophenyl)-4-methyl-1H-pyrazol-3-yl)-5-cycloheptyl-1,3,4-thiadiazole]

Molecule | IC50
5-(5-(4-Chlorophenyl)-1-(2,4-dichlorophenyl)-4-methyl-1H-pyrazol-3-yl)-1-octyl-1H-tetrazole [Example 604] | 47.3 nM
Cc1c(-c2nnc(C3(c4ccc(Cl)cc4)CCC3)o2)nn(-c2cccc(Cl)c2Cl)c1-c1ccc(Cl)cc1 [Example 137, 2-(5-(4-chlorophenyl)-1-(2,3-dichlorophenyl)-4-methyl-1H-pyrazol-3-yl)-5-(1-(4-chlorophenyl)cyclobutyl)-1,3,4-oxadiazole] | 141 nM

From patent US7875647B2, “Heteroaryl-pyrazole derivatives as cannabinoid CB1 receptor antagonists” (Green Cross Corporation, priority 2006, dated 2011)
